Measured values as given in patent US5547856A, “Hepatocyte growth factor variants” (Genentech, Inc., priority 1993, dated 1996).
Entries after “also recorded” stand apart in the source; their conditions may differ.

Experiments:
[1] = target: extracellular domain of the human HGF receptor (huHGFr) fused to the Fc constant region of an human IgG; assay: Soluble HGF receptor competitive binding assay (displacement of 125I-rhuHGF); details: for Kdwt/Kdvar +/-S.D.: Table 1, receptor binding capacity relative to WT rhuHGF, at least three independent assays; for receptor binding / Kd (in words): compared to WT rhuHGF; for Kdwt/mut: Table 2, Kd ratio wild type/mutant; for Kd: binding to HGF receptor:IgG fusion protein, calculated at the IC50 from fitted inhibition curves
Protocol: The coding sequence of the extracellular domain of the huHGFr was fused to those of the human IgGl heavy chain in a two-step process. […] The 5' primer (located in the vector upstream of the HeFr coding sequences) and the 3' primer (5'-[…]-3') (SEQ. ID. NO: 21) were used in a 100 μl reaction as described above except that the extension time at 72° C. was 3 minutes, and 40 ng of the full length HGFr expression vector was used as template. […] Sequencing of the construct was carried out as described above.
The binding assay was performed in breakable microtiter plates (Nunc) coated o/n at 4° C. with […] of rabbit-anti-human IgG Fc specific antibody (Jackson Immunoresearch) and plates were carefully washed with PBS containing 0.05% Tween 20 (Biorad). […] To each well […] of serial dilutions (1:25-1:6000) of cell supernatants, purified CHO-expressed rhuHGF ([…]) or medium were added in duplicates. Subsequently, […] of 50 pM of HGF receptor:IgG fusion protein were added and the plates were incubated with gentle shaking. After 4 hours, when equilibrium was reached, plates were washed and wells were individually counted in a gamma-counter. The amount of nonspecifically bound radioactivity was estimated by incubating HGF receptor:IgG with a 500-fold excess of unlabelled rhuHGF.

[2] = system: rat hepatocytes in primary culture; assay: Mitogenic assay: induction of DNA synthesis (3H-TdR incorporation) of rat hepatocytes in primary culture; type: cell-based; details: for residual SA compared to WT rhuHGF: % of WT rhuHGF specific activity; for SA var/SA wt +/-S.D.: Table 1, specific mitogenic activity of variant relative to WT rhuHGF, at least three independent assays; for SA var/SA wt +/-S.D. / SA mut/wt +/- SD / SA +/- mut/wt: * = did not reach the same absolute level as wild-type huHGF; for SA mut/wt +/- SD: Table 2, specific mitogenic activity relative to wt rhuHGF; for SA +/- mut/wt: Table 3, alterations near or within the hairpin domain
Protocol: The biological activity of WT huHGF and variants was measured by their abilities to induce DNA synthesis of rat hepatocytes in primary culture. […] Briefly, the livers of female Sprague Dawley rats (160-180 g) were perfused through the portal vein with 100 mL of Ca^++ free Hepes buffered saline containing 0.02% Collagenase type IV (Sigma). After 20 minutes the liver was removed, placed in buffer, gently stirred to separate hepatocytes from connective tissue and blood vessels, and filtered through nylon mesh. Cells were then washed by centrifugation, resuspended at 1×10^5 cells/mL in Williams Media E (Gibco) containing Penicillin (100 U/ml), Streptomycin ([…]), L-Glutamine (2 mM), trace elements (0.01%), transfertin ([…]) and Aprotinin ([…]). […] After 48 hours incubation at 37° C., 0.5 mCi 3H-TdR (15 Ci/mmole, Amersham) was added to each well and incubated for an additional 16 hours. Cells were harvested on filter papers, which were washed, dried and counted in a Beckman counter after addition of scintillation liquid. For each huHGF variant, the specific activity (SA) expressed in units/mg was calculated at half-maximal proliferation (defined as 1 unit/mL) using the HGF concentration obtained in ELISA.

[3] = system: cell surface receptor on hepatocytes; details: Higuchi and Nakamura 1991; cited from earlier work
[4] = system: 145 kDa β-subunit of the HGF receptor in A549 cells; assay: Induction of tyrosine phosphorylation of the HGF receptor on A549 cells (Western blot); type: cell-based, human; details: serum-starved A549 cells, 200 ng/mL purified protein, 5 minutes
Protocol: FIG. 4: Western blot of ligand-induced tyrosine-phosphorylation on the 145 kDa β-subunit of the HGF receptor by wild-type rhuHGF, single-chain or protease domain huHGF variants. […] Molecular masses (kilodaltons) are as indicated.
Serum-starved cells were incubated without or with 200 ng/mL rhuHGF for 5 minutes at 37° C. and extracted with lysis buffer containing 50 mM Hepes, 150 mM NaCl, 1.5 mM MgCl2, 1 mM EGTA, 10% Glycerol, 1% Triton X-100 and a cocktail of protease inhibitors. The lysates were immunoprecipitated with anti-Met COOH antibodies and blotted with anti-phosphotyrosine antibodies (see Western blotting above).

Row | Substance | Kdwt/mut [1] | SA mut/wt +/- SD [2] | SA +/- mut/wt [2] | other results
1 | Q534H, Y673S: huHGF protease domain double variant |  |  |  | Kdwt/Kdvar +/-S.D. [1]: 2.24 +/- 1.11; receptor binding / Kd (in words) [1]: not significantly different from WT rhuHGF; residual SA compared to WT rhuHGF [2]: less than 3%; SA var/SA wt +/-S.D. [2]: < 0.03
2 | R168A: huHGF Kringle 1 domain substitution variant | 0.98 +/- 0.04 | 0.83 +/- 0.07 |  | 
3 | Q534H, Y673S, V692S: huHGF protease domain triple variant |  |  |  | Kdwt/Kdvar +/-S.D. [1]: 1.91 +/- 1.28; receptor binding / Kd (in words) [1]: not significantly different from WT rhuHGF; residual SA compared to WT rhuHGF [2]: less than 3%; SA var/SA wt +/-S.D. [2]: < 0.02
4 | K52A: huHGF variant with alteration near or within the hairpin domain |  |  | 0.19 +/- 0.03 | 
5 | Q173A, E174A, N175A: huHGF Kringle 1 domain substitution variant | 0.21 +/- 0.03 | 0.33 +/- 0.07 |  | 
6 | huHGF: human hepatocyte growth factor as studied in the literature for binding to hepatocytes |  |  |  | Kd [3]: 0.024 to 0.032 nM
7 | E159A: huHGF Kringle 1 domain substitution variant | < 0.03 | < 0.02 |  | 
8 | Y198A: huHGF Kringle 1 domain substitution variant | 0.77 | 0.88 +/- 0.06 |  | 
9 | wt rhuHGF: wild-type recombinant human hepatocyte growth factor, 728 amino acid form (Miyazawa et al. 1989) [reference compound] | 1 | 1 | 1 | Kd [1]: 0.07 nM; Kd ([1]; listed as WT rhuHGF): 0.05 to 0.07 nM; tyrosine phosphorylation of the HGF receptor (in words) [4]: led to the phosphorylation on tyrosine of the 145 kDa β-subunit of the HGF receptor
10 | K52A, D54A: huHGF variant with alterations near or within the hairpin domain |  |  | 0.32 +/- 0.03 | 
11 | V692S: huHGF protease domain variant, V692 replaced with S |  |  |  | Kdwt/Kdvar +/-S.D. [1]: 1.02 +/- 0.13; receptor binding / Kd (in words) [1]: Kd similar to WT rhuHGF; fold reduction of SA compared to wt rhuHGF [2]: ~10 fold; maximum plateau of mitogenic response [2]: approximately 50 % of wt rhuHGF plateau; SA var/SA wt +/-S.D. [2]: 0.08 +/- 0.04
12 | F162A: huHGF Kringle 1 domain substitution variant | 0.05 +/- 0.01 | 0.04 +/- 0.02 |  | 
13 | H114A: huHGF variant with alteration near or within the hairpin domain |  |  | 0.16 +/- 0.04 | 
14 | F162A, L163A, S165A, S166A: huHGF Kringle 1 domain substitution variant | 0.05 +/- 0.02 | < 0.02 |  | 
15 | K58A, K60A, K62A, K63A, N65A: huHGF variant with alterations near or within the hairpin domain |  |  | 6.96 +/- 0.12 | 
16 | N193A, E195A, R197A: huHGF Kringle 1 domain substitution variant | < 0.04 | < 0.02 |  | 
17 | R126A, N127A: huHGF variant with alterations near or within the hairpin domain |  |  | 0.33 +/- 0.14 | 
18 | D54A: huHGF variant with alteration near or within the hairpin domain |  |  | 0.13 +/- 0.01 | 

Row | Substance | Kdwt/mut [1] | SA mut/wt +/- SD [2] | SA +/- mut/wt [2] | other results
19 | R181A, E183A, E184A: huHGF Kringle 1 domain substitution variant | 0.95 +/- 0.04 | 0.92 +/- 0.08 |  | 
20 | N193A: huHGF Kringle 1 domain substitution variant | 0.62 +/- 0.20 | 0.45 +/- 0.12 |  | 
21 | H114A, E115A, D117A: huHGF variant with alterations near or within the hairpin domain |  |  | < 0.02 | 
22 | K137A: huHGF Kringle 1 domain substitution variant | 0.98 +/- 0.04 | 1.12 +/- 0.10 |  | 
23 | L163A, S165A, S166A: huHGF Kringle 1 domain substitution variant | 1.10 +/- 0.04 | 0.14 +/- 0.08 |  | 
24 | K34A, R35A, R36A: huHGF variant with alterations near or within the hairpin domain |  |  | 0.71 +/- 0.33 | 
25 | Q173A: huHGF Kringle 1 domain substitution variant | 0.15 +/- 0.05 | 0.13 +/- 0.03 |  | 
26 | Q534H: huHGF protease domain variant, Q534 replaced with H |  |  |  | Kdwt/Kdvar +/-S.D. [1]: 1.48 +/- 0.85; Kd [1]: 0.06 nM; SA var/SA wt +/-S.D. [2]: 1.19 +/- 0.44
27 | E115A: huHGF variant with alteration near or within the hairpin domain |  |  | 0.20 +/- 0.02 | 
28 | K109A, K110A, E111A: huHGF variant with alterations near or within the hairpin domain |  |  | 0.98 +/- 0.04 | 
29 | Y673S: huHGF protease domain variant, Y673 replaced with S |  |  |  | Kdwt/Kdvar +/-S.D. [1]: 1.35 +/- 0.72; receptor binding / Kd (in words) [1]: Kd similar to WT rhuHGF; fold reduction of SA compared to wt rhuHGF [2]: approximately 5 fold; maximum plateau of mitogenic response [2]: approximately 50 % of wt rhuHGF plateau; SA var/SA wt +/-S.D. [2]: 0.27 +/- 0.07
30 | N72A, R76A, N77A, K78A: huHGF variant with alterations near or within the hairpin domain |  |  | 0.04 +/- 0.07 | 
31 | R494E |  |  |  | Kdwt/Kdvar +/-S.D. [1]: 0.31 +/- 0.13; tyrosine phosphorylation of the HGF receptor (in words) [4]: reduced ability to induce phosphorylation of the HGF receptor; also recorded: not efficient in stimulating tyrosine-phosphorylation in A549 cells; SA var/SA wt +/-S.D. [2]: < 0.02
32 | Y673S, V692S |  |  |  | Kdwt/Kdvar +/-S.D. [1]: 1.76 +/- 0.63; receptor binding / Kd (in words) [1]: not significantly different from WT rhuHGF; tyrosine phosphorylation of the HGF receptor (in words) [4]: reduced ability to induce phosphorylation of the HGF receptor; also recorded: not efficient in stimulating tyrosine-phosphorylation in A549 cells; residual SA compared to WT rhuHGF [2]: less than 3%; SA var/SA wt +/-S.D. [2]: < 0.02
33 | R197A: huHGF Kringle 1 domain substitution variant | < 0.03 | < 0.01 |  | 
34 | D117A: huHGF variant with alteration near or within the hairpin domain |  |  | 0.02 | 
35 | K144A, K148A: huHGF Kringle 1 domain substitution variant | 1.03 +/- 0.08 | 0.93 +/- 0.16 |  | 
